The source of these data is paper PMC9014415, “Repositioning of a Diaminothiazole Series Confirmed to Target the Cyclin-Dependent Kinase CRK12 for Use in the Treatment of African Animal Trypanosomiasis” (Journal of Medicinal Chemistry, 2022).

A short description of series [1]: PK and formulation studies in Sprague Dawley rats, IM. Conditions: rat, single IM 5 mg/kg. In kind it is in vivo. Here is the method: 2.4 Protein plasma binding […]
2.6 PK and formulation studies - male Sprague rats
Compound 1 was dosed SC at 5 mg free base/kg (dose volume 0.2 or 1 mL/kg; dose vehicle 10% N-methyl-2- pyrrolidinone (NMP), 30% 2-pyrrolidinone, 40% PEG400, 20% deionized water or 10% DMSO, 30% PEG400 and 60% deionized water, respectively) or IM at 5 and 10 mg free base/kg (dose volume 0.2 mL/kg; dose vehicle 10% NMP, 30% 2-pyrrolidinone, 40% PEG400, 20% deionized water or 83.4% 2-pyrrolidinone/polyvinylpyrrolidone (PVP), 16.6% saline or 80% 2-pyrrolidinone/NMP/PVP, 20% (0.05% 2-propanol in saline) to male SD rats (n=3).
Compound 2 was dosed IV at 3 mg free base/kg (dose volume 1 mL/kg; dose vehicle: 10% DMSO, 40% PEG400 and 50% deionized water) or IM at 5, 10 and 20 mg free base/kg (dose volume 0.2 […]
and 0.4 mL/kg; dose vehicle 10% NMP, 30% 2-pyrrolidinone, 40% PEG400, 20% deionized water or 83.4% 2-pyrrolidinone/polyvinylpyrrolidone (PVP), 16.6% saline or 80% 2-pyrrolidinone/NMP/PVP, 20% 0.05% 2-propanol in saline or 40% 0.3M Acetate Buffer, 20% Kolliphor, 20% glycerol formal, 20% 2-pyrrolidinone or 40% 0.3M Acetate Buffer, 20% glycerol formal, 20% 2-pyrrolidinone) to male SD rats (n=3). […]
Compound 2 was dosed IM at 10 mg free base/kg (dose volume 2 mL/10 kg; dose vehicle 40% 0.3 M Acetate Buffer, 20% Kolliphor EL, 20% glycerol formal, 20% 2-pyrrolidone) or IV at 2 mg free base/kg (dose volume 0.4 mL/10 kg; 40% 0.3 M Acetate Buffer, 20% Kolliphor EL, 20% glycerol formal, 20% 2-pyrrolidone) to male ruminating Holstein-Friesian cross animals (n = 3). Blood samples were taken from each animal using 18-G needles into EDTA (K2) vacutainers before dosing […]
into a cool box containing iced water and were processed within 2 h of collection.
2.8 Formulation and tolerability studies for compound 2 (NorthWest Biopharm) A study to identify alternative formulations was conducted. Compound 2, either as the hydrochloride salt or free base, was screened to identify a 50 mg/mL soluble formulation suitable for injection. […]
Kolliphor EL, N-methyl pyrrolidone, 2-pyrrolidone and 11% water at 5 mg/kg was assessed, IM […]
A screen of salt forms as alternatives to the hydrochloride was carried out at Drugabilis. Ten pharmaceutically acceptable counter ions were assessed and three were selected for further study […]
(citrate, fumarate and phosphate) (Figure 9). These alternative salt forms of compound 2 were prepared and formulated in the best vehicle determined by injection site tolerability analysis (0.3M sodium acetate buffer, Kolliphor EL, N-methyl pyrrolidone, 2-pyrrolidone, and 11% water suitable for injection). […]

Series [2] in a line: Estimated EC99 used for PK/PD (parasite not stated). The settings on record: free blood level threshold. An excerpt: Given promising in vivo efficacy data in mice (Table 1), compound 1 was progressed into cattle pharmacokinetic studies, dosing both IV and IM (Table 2, Figure S2, and Table S4). […] This low bioavailability was likely a consequence of poor compound release from the injection site following IM administration in cattle due to the low solubility of compound 1, probably leading to compound accumulation and precipitation at the injection site.

A short description of series [3]: Comparative cattle PK, IM compared to SC (NorthWest Biopharm). The class given is in vivo. The settings on record: Aberdeen Angus crossbreed and Limousin crossbreed, bovine, blood, 5 mg/kg free base. Here is the method:
Kolliphor EL, N-methyl pyrrolidone, 2-pyrrolidone and 11% water suitable for injection) […]
Comparative cattle PK (Northwestern Biopharm)
The pharmacokinetics for compound 2 when dosed as free base in the best tolerated formulation: […]
Kolliphor EL, N-methyl pyrrolidone, 2-pyrrolidone and 11% water at 5 mg/kg was assessed, IM
compared to SC. Bioanalysis of blood
samples was conducted at the University of Dundee. […]

Broadly, the Cmax is the peak of the concentration-time curve. In series [1] (male, blood, Sprague Dawley rats, 10% NMP, 30% 2-pyrrolidinone, 40% PEG400, 20% water, mean), `CC(C)CS(=O)(=O)N[C@H]1CC[C@H](Nc2nc(N)c(C(=O)c3c(F)cccc3F)s2)CC1` [Compound 1, N-((trans)-4-((4-Amino-5-(2,6-difluorobenzoyl)thiazol-2-yl)amino)cyclohexyl)-2-methylpropane-1-sulfonamide] yielded a Cmax of 92 ng/mL. The AUC(0-t) in series [1] (male, blood, Sprague Dawley rats, 10% NMP, 30% 2-pyrrolidinone, 40% PEG400, 20% water, mean, read-out: AUC0-8 (converted)) was 354 ng·h/mL. Further, the “Time at which free concentration in blood <EC99” value is on record as 3 h in series [1] (formulation A: 83.4% PVP/2-pyrrolidone, 16.6% saline) and 4 h in series [1] (formulation B: 80% vehicle 1 (NMP:2-pyrrolidone): 20% vehicle 2). The “estimated EC99” value in series [2] is reported as 1.6 ng/mL.
The AUC is the area under the concentration-time curve, a measure of exposure. A high value points to more exposure. What is called Tmax is the time at which the peak concentration occurs. For the compound `CC(C)CS(=O)(=O)N[C@H]1CC[C@H](Nc2nc(N)c(C(=O)c3c(F)cc(CN(C)C)cc3F)s2)CC1` [Compound 2, N-(trans)-[4-[[4-Amino-5-[4-(dimethylaminomethyl)-2,6-difluoro-benzoyl]thiazol-2-yl]amino]cyclohexyl]-2-methyl-propane-1-sulfonamide], in series [3] (IM), the AUC was 3170 ng·h/mL, the Cmax was determined as 360 ng/mL and the Tmax was determined as 0.5 h. Also, in series [3] (SC), the AUC was 967 ng·h/mL, the Cmax is 86 ng/mL and the Tmax came out at 3 h.
